Measurements as given in patent publication US8329904B2, “Azacyclic derivatives” (Hoffmann-La Roche Inc., priority 2009, dated 2012).

These compounds were tested against T1, human HSL (Homo sapiens, UniProt Q05469) (assay: Human Hormone-Sensitive Lipase (HSL) Enzyme Inhibition Assay). Details: colorimetric assay, 2,3-dimercapto-1-propanol tributyrate (DMPT) substrate, 37° C. for 20 minutes, absorbance at 405 nm; read-out: HSL hum IC50.
T1 construct: overlapping PCR to generate a full length human HSL ORF with a 3′-His6 tag; His6 (C); made in house; host or cells: High 5 insect cells (baculovirus, pFast-BAC)
T1 sequence (Q05469 1-1076): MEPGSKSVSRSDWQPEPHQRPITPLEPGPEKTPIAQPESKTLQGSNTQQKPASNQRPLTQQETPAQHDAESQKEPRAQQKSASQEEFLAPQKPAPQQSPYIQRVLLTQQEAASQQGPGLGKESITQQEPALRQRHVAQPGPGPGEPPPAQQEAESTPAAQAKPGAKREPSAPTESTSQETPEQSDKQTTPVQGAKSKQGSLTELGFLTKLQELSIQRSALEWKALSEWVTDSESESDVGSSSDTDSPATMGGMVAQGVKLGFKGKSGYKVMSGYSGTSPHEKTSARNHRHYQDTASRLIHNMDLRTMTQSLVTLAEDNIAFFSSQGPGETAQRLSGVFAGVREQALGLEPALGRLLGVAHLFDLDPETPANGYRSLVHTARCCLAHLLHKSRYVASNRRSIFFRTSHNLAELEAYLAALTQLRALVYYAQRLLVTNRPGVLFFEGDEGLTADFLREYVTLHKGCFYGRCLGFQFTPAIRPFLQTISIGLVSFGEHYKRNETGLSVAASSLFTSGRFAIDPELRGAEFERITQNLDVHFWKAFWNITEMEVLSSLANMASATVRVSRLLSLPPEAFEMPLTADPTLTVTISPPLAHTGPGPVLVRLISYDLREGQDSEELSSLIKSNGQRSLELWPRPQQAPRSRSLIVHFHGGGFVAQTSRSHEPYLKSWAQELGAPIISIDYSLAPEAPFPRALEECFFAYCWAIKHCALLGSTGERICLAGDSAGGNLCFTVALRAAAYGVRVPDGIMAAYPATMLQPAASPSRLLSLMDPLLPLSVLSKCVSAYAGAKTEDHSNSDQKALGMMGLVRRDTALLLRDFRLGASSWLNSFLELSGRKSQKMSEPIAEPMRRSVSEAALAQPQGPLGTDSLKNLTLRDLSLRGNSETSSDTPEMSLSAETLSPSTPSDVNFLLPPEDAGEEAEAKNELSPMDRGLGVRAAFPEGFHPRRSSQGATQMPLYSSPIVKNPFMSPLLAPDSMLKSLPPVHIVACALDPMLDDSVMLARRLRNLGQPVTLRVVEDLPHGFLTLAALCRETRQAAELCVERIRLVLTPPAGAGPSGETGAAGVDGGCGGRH
Format: biochemical
Method: Production of Human Full Length Hormone Sensitive Lipase-His^6
1) Cloning: cDNA was prepared from commercial human brain polyA-+ RNA and used as a template in overlapping PCR to generate a full length human HSL ORF with a 3′-His6 tag. This full length insert was cloned into the pFast-BAC vector and the DNA-sequence of several single clones was verified. DNA from a correct full length clone with the 3′His6 tag was used to transform the E. coli strain DH10BAC. Resulting bacmid DNA was used to generate a titered baculovirus stock for protein generation.
Cells were thawed. […] was done at 3×30 sec., Lubrol PX was added to 0.2% final concentration followed by stirring for 15 min. at 4° C. and centrifugation at 25 k×g, 60 min., 4° C. […] Supernatant was removed, the resin washed in the centrifuge vessel using 5 volumes of Base Buffer containing 0.2% Lubrol PX. Centrifugation was done again, then the supernatant discarded. The resin wass poured onto a 0.8 μm membrane in a disposable filter unit (Nalge 450-0080), and washed with 5 volumes of Base Buffer containing 0.2% Lubrol PX. It was then washed with 30 volumes of Base Buffer containing 60 mM imidazole pH 7.5 at 4° C. The protein was eluated with 5 volumes of 25 mM Tris-Cl, 300 mM NaCl, 200 mM imidazole, 10 mM 2-mercaptoethanol, pH 7.5 at 4° C. by tumbling resin with buffer end-over-end, 30 min., 4° C. The resin was captured on a 0.2 μm membrane disposable filter unit (Millipore SCGP U02 RE) and the eluate collected in the reservoir. The eluate was concentrated using a 30 k MWCO centrifugal filter device (Sartorius Vivascience Vivacell 100, VC1022), to 20 ml. It was then dialyzed overnight at 4° C., two times against 2 L of 10% glycerol, 25 mM Tris-Cl, 300 mM NaCl, 0.2 mM EDTA, 0.2 mM DTT, pH 7.5 at 4° C. The protein was filtered using a 0.22 μm disposable filter unit (Millipore SCGP00525). The protein concentration was calculated from absorbance at 280 nm, using 280=0.67 cm-1 mg-1. […] The protein was stored at −80° C.
Human Hormone-Sensitive Lipase (HSL) Enzyme Inhibition Assay:
HSL enzyme activity was measured by a colorimetric assay using 2,3-dimercapto-1-propanol tributyrate (Aldrich, St. Louis, Mo.) as a substrate. Typically, 1.5 mM 2,3-dimercapto-1-propanol tributyrate (DMPT) in 100 mM MOPS, pH 7.2, 0.2 mg/ml fatty acid-free BSA was prepared by sonication at 4° C. to homogenous suspension. Test compounds (2 mM stock in DMSO) were diluted 3 fold in series in DMSO. Compound solutions were diluted 24 fold in 1.5 mM DMPT containing solution and 18 ul per well was added to 384-well microplates (Corning Costar). Twelve microliters per well of human HSL (15 ug/ml) was added and the reaction mixture was incubated at 37° C. for 20 minutes. Six microliters of 12 mM dithio-bis-(2-nitrobenzoic acid) (DTNB) in DMSO plus 1.2% SDS and 0.6% Triton X-100 were added and the mixture was incubated at room temperature for 15 minutes. Product production was monitored by reading absorbance at 405 nm on an Envision Reader (PerkinElmer Life and Analytical Sciences, Shelton, Conn.).

Structure (SMILES) | IC50
CC(C)(C)OCC(=O)N1CCC2(CC1)CCN(c1ccc(OC(F)(F)F)cc1)C2=O [Example 218, 8-(2-tert-Butoxy-acetyl)-2-(4-trifluoromethoxy-phenyl)-2,8-diaza-spiro[4.5]decan-1-one] | 100 nM
O=C1N(c2ccc(OC(F)(F)F)cc2)CCC12CCN(S(=O)(=O)c1ccc(Cl)nc1)CC2 [Example 198, 8-(6-Chloro-pyridine-3-sulfonyl)-2-(4-trifluoromethoxy-phenyl)-2,8-diaza-spiro[4.5]decan-1-one] | 150 nM
CCC(C)Oc1ccc(N2CCC3(CCN(S(=O)(=O)c4ccccc4OC(F)(F)F)CC3)C2=O)cc1 (stereo not shown) [Example 90, 2-(4-sec-Butoxy-phenyl)-8-(2-trifluoromethoxy-benzenesulfonyl)-2,8-diaza-spiro[4.5]decan-1-one] | 20 nM
CC1CCCN1C(=O)N1CCC2(CC1)CCN(c1ccc(OC(F)(F)F)cc1)C2=O (stereo not shown) [Example 267, 8-(2-Methyl-pyrrolidine-1-carbonyl)-2-(4-trifluoromethoxy-phenyl)-2,8-diaza-spiro[4.5]decan-1-one] | 150 nM
O=C1N(CCc2ccc(Cl)c(Cl)c2)CCC12CCN(S(=O)(=O)c1ccccc1Cl)CC2 [Example 248, 8-(2-Chloro-benzenesulfonyl)-2-[2-(3,4-dichloro-phenyl)-ethyl]-2,8-diaza-spiro[4.5]decan-1-one] | 70 nM
CCc1ccc(N2CCC3(CCN(S(=O)(=O)c4ccccc4Cl)CC3)C2=O)cc1 [Example 17, 8-(2-Chloro-benzenesulfonyl)-2-(4-ethyl-phenyl)-2,8-diaza-spiro[4.5]decan-1-one] | 30 nM
CC(C)CS(=O)(=O)N1CCC2(CCN(c3ccc(OCC4CC4)cc3)C2=O)CC1 [Example 94, 2-(4-Cyclopropylmethoxy-phenyl)-8-(2-methyl-propane-1-sulfonyl)-2,8-diaza-spiro[4.5]decan-1-one] | 270 nM
CCN(CC)S(=O)(=O)N1CCC2(CCN(c3ccc(OC(F)(F)F)cc3)C2=O)CC1 [Example 291, 1-Oxo-2-(4-trifluoromethoxy-phenyl)-2,8-diaza-spiro[4.5]decane-8-sulfonic acid diethylamide] | 90 nM
O=C1N(c2ccc(OC(F)(F)F)cc2)CCC12CCN(S(=O)(=O)c1ccccc1C(F)(F)F)CC2 [Example 68, 2-(4-Trifluoromethoxy-phenyl)-8-(2-trifluoromethyl-benzenesulfonyl)-2,8-diaza-spiro[4.5]decan-1-one] | 40 nM
CCc1ccc(N2CCC3(CCN(C(=O)Nc4ccc(F)cc4)CC3)C2=O)cc1 [Example 258, 2-(4-Ethyl-phenyl)-1-oxo-2,8-diaza-spiro[4.5]decane-8-carboxylic acid (4-fluoro-phenyl)-amide] | 400 nM
CCc1ccc(N2CCC3(CCN(C(=O)NCCc4ccccc4)CC3)C2=O)cc1 [Example 263, 2-(4-Ethyl-phenyl)-1-oxo-2,8-diaza-spiro[4.5]decane-8-carboxylic acid phenethyl-amide] | 160 nM

The remaining compounds from weak to strong by IC50, led by results:

IC50 | Structure (SMILES)
570 nM | Cn1cc2cc(N3CCC4(CCN(S(=O)(=O)c5ccccc5Cl)CC4)C3=O)ccc2n1 [Example 131, 8-(2-Chloro-benzenesulfonyl)-2-(2-methyl-2H-indazol-5-yl)-2,8-diaza-spiro[4.5]decan-1-one]
110 nM | Cc1noc(C)c1S(=O)(=O)N1CCC2(CCN(c3ccc(OC(C)C(F)(F)F)cc3)C2=O)CC1 (stereo not shown) [Example 97, 8-(3,5-Dimethyl-isoxazole-4-sulfonyl)-2-[4-(2,2,2-trifluoro-1-methyl-ethoxy)-phenyl]-2,8-diaza-spiro[4.5]decan-1-one]
90 nM | O=C1N(c2ccc(OC(F)(F)F)cc2)CCC12CCN(S(=O)(=O)CC1CCC1)CC2 [Example 93, 8-Cyclobutylmethanesulfonyl-2-(4-trifluoromethoxy-phenyl)-2,8-diaza-spiro[4.5]decan-1-one]
70 nM | CN(c1ccccc1)S(=O)(=O)N1CCC2(CCN(c3ccc(OC(F)(F)F)cc3)C2=O)CC1 [Example 295, 1-Oxo-2-(4-trifluoromethoxy-phenyl)-2,8-diaza-spiro[4.5]decane-8-sulfonic acid methyl-phenyl-amide]
70 nM | CN(C(=O)N1CCC2(CC1)CCN(c1ccc(OC(F)(F)F)cc1)C2=O)C1CCCCC1 [Example 276, 1-Oxo-2-(4-trifluoromethoxy-phenyl)-2,8-diaza-spiro[4.5]decane-8-carboxylic acid cyclohexyl-methyl-amide]
50 nM | CC(Oc1ccc(N2CCC3(CCN(S(=O)(=O)c4ccccc4Cl)CC3)C2=O)cn1)C(F)(F)F (racemic) [Example 114, 8-(2-Chloro-benzenesulfonyl)-2-[6-(2,2,2-trifluoro-1-methyl-ethoxy)-pyridin-3-yl]-2,8-diaza-spiro[4.5]decan-1-one (rac)]
50 nM | O=C1N(c2ccc(OC(F)(F)F)cc2)CCC12CCN(S(=O)(=O)c1ccccn1)CC2 [Example 201, 8-(Pyridine-2-sulfonyl)-2-(4-trifluoromethoxy-phenyl)-2,8-diaza-spiro[4.5]decan-1-one]
50 nM | O=C1N(c2ccc(OS(=O)(=O)C3CC3)cc2)CCC12CCN(S(=O)(=O)c1ccccc1OC(F)(F)F)CC2 [Example 80, Cyclopropanesulfonic acid 4-[1-oxo-8-(2-trifluoromethoxy-benzenesulfonyl)-2,8-diaza-spiro[4.5]dec-2-yl]-phenyl ester]
20 nM | O=C1N(c2ccc(C(O)C(F)(F)F)cc2)CCC12CCN(S(=O)(=O)c1ccccc1Cl)CC2 (stereo not shown) [Example 152, 8-(2-Chloro-benzenesulfonyl)-2-[4-(2,2,2-trifluoro-1-hydroxy-ethyl)-phenyl]-2,8-diaza-spiro[4.5]decan-1-one]
20 nM | CC(Oc1ccc(N2CCC3(CCN(S(=O)(=O)c4ccccc4Cl)CC3)C2=O)cc1)C(F)(F)F (stereo not shown) [Example 125, 8-(2-Chloro-benzenesulfonyl)-2-[4-(2,2,2-trifluoro-1-methyl-ethoxy)-phenyl]-2,8-diaza-spiro[4.5]decan-1-one]
20 nM | CC(O)(c1ccc(N2CCC3(CCN(S(=O)(=O)c4ccccc4Cl)CC3)C2=O)cc1)C(F)(F)F (stereo not shown) [Example 155, 8-(2-Chloro-benzenesulfonyl)-2-[4-(2,2,2-trifluoro-1-hydroxy-1-methyl-ethyl)-phenyl]-2,8-diaza-spiro[4.5]decan-1-one]
